# Assay results from patent publication US20230391786A1, “cGAS INHIBITORS” (Eli Lilly and Company, priority 2022, published 2023).
# Molecular target: recombinant human cGAS (Homo sapiens (Human), UniProt Q8N884)
# Assay: In vitro inhibition assay of cGAS activity (cGAMP production, RapidFire mass spectrometry)
# Assay type: biochemical
# Details: 10 nM recombinant human cGAS, 60 nM 75-bp dsDNA, ATP, GTP, room temperature 3 hours, read-out: IC50 (μM), In vitro inhibition assay for Compounds 1-94
# Method in brief: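 Full-length His6-tagged human cGAS (10 nM, E. coli-expressed) was incubated 3 h at room temperature with 60 nM 75-bp dsDNA, ATP, 50 μM GTP and compound at pH 7.5 with 5 mM MgCl2. cGAMP formation was measured by RapidFire mass spectrometry, and IC50 was taken from a 4-parameter logistic fit.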
# Chain of recombinant human cGAS (Q8N884 whole entry): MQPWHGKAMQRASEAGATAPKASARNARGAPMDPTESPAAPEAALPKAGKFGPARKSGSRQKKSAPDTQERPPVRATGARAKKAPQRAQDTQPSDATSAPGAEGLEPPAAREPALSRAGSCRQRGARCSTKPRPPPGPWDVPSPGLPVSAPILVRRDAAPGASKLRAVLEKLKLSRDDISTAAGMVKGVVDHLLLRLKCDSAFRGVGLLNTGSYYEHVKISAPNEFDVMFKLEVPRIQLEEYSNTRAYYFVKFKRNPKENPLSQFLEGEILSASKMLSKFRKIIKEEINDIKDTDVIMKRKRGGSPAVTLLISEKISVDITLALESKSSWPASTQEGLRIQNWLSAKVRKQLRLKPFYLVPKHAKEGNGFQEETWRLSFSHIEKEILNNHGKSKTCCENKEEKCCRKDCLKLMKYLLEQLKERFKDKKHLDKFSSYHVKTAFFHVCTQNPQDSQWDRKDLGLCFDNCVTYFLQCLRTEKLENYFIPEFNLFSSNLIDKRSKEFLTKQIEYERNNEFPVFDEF
row,SMILES,IC50
1,"N#CCOc1cc(Cl)c(F)c2[nH]cc(-n3ccnc3)c12 [Example 72, 2-[(6-Chloro-7-fluoro-3-imidazol-1-yl-1H-indol-4-yl)oxy]acetonitrile]",0.0772 µM
2,"OC1CCc2c(-c3cn[nH]c3)c3ccc(Cl)c(Cl)c3n2C1 (single isomer, unassigned) [Example 18, 3,4-Dichloro-10-(1H-pyrazol-4-yl)-6,7,8,9-tetrahydropyrido[1,2-a]indol-7-ol]",0.152 µM
3,"OCC1CCn2c(c(-c3cn[nH]c3)c3ccc(Cl)c(Cl)c32)C1 (single isomer, unassigned) [Example 15, [3,4-Dichloro-10-(1H-pyrazol-4-yl)-6,7,8,9-tetrahydropyrido[1,2-a]indol-8-yl]methanol]",0.289 µM
4,"O=C1Cn2c(c(-c3cn[nH]c3)c3ccc(Cl)c(Cl)c32)CCN1CCO [Example 79, 7,8-Dichloro-3-(2-hydroxyethyl)-11-(1H-pyrazol-4-yl)-2,3-dihydro-1H-[1,4]diazepino[1,7-a]indol-4(5H)-one]",0.0753 µM
5,"CN(C)C(=O)CCC(=O)N1CCn2c(c(-c3cn[nH]c3)c3ccc(Cl)c(Cl)c32)C1 [Example 44, 4-[6,7-dichloro-10-(1H-pyrazol-4-yl)-3,4-dihydro-1H-pyrazino[1,2-a]indol-2-yl]-N,N-dimethyl-4-oxo-butanamide]",0.0534 µM
6,"OCCC1CCc2c(-c3cn[nH]c3)c3ccc(Cl)c(Cl)c3n2C1 (stereo not shown) [Example 73, 2-[3,4-Dichloro-10-(1H-pyrazol-4-yl)-6,7,8,9-tetrahydropyrido[1,2-a]indol-7-yl] ethanol]",0.062 µM
7,"NC(=O)CNc1cc(Cl)c(Cl)c2[nH]cc(-c3cn[nH]c3)c12 [Example 64, 2-[[6,7-Dichloro-3-(1H-pyrazol-4-yl)-1H-indol-4-yl]amino] acetamide]",0.0486 µM
8,"Cc1[nH]c2c(Cl)c(Cl)ccc2c1-c1cn[nH]c1 [Example 2, 6,7-Dichloro-2-methyl-3-(1H-pyrazol-4-yl)-1H-indole]",0.0557 µM
9,"Clc1ccc2c(-c3cn[nH]c3)c(CNc3ccon3)[nH]c2c1Cl [Example 6, N-[[6,7-Dichloro-3-(1H-pyrazol-4-yl)-1H-indol-2-yl]methyl]isoxazol-3-amine]",0.0578 µM
10,O=C(CN1CCOC1=O)N1CCn2c(c(-c3cn[nH]c3)c3ccc(Cl)c(Cl)c32)C1 [Example 48],0.0443 µM
11,"O=C(O)C1CCn2c(c(-c3cn[nH]c3)c3ccc(Cl)c(Cl)c32)C1 (single isomer, unassigned) [Example 13, 3,4-Dichloro-10-(1H-pyrazol-4-yl)-6,7,8,9-tetrahydropyrido[1,2-a]indole-8-carboxylic acid]",0.0117 µM

# Same assay, conditions: 10 nM recombinant human cGAS, 60 nM 75-bp dsDNA, ATP, GTP, room temperature 3 hours, read-out: IC50 (μM), In vitro inhibition assay for Compounds 95-348
row,SMILES,IC50
1,"COC1(C(=O)N2CCn3c(c(-c4cn[nH]c4)c4ccc(Cl)c(Cl)c43)C2)CCOC1 (stereo not shown) [Example 334, (6,7-Dichloro-10-(1H-pyrazol-4-yl)-3,4-dihydropyrazino[1,2-a]indol-2(1H)-yl)(3-methoxytetrahydrofuran-3-yl)methanone]",0.0985 µM
2,"CN1CC(C(=O)N2CCn3c(c(-c4cn[nH]c4)c4ccc(Cl)c(Cl)c43)C2)CC1=O (stereo not shown) [Example 319, 4-(6,7-Dichloro-10-(1H-pyrazol-4-yl)-1,2,3,4-tetrahydropyrazino[1,2-a]indole-2-carbonyl)-1-methylpyrrolidin-2-one]",0.0534 µM
3,"CCC(=O)NC(C)C(=O)N1CCn2c(c(-c3cn[nH]c3)c3ccc(Cl)c(Cl)c32)C1 (stereo not shown) [Example 329, N-(1-(6,7-Dichloro-10-(1H-pyrazol-4-yl)-3,4-dihydropyrazino[1,2-a]indol-2(1H)-yl)-1-oxopropan-2-yl)propionamide]",0.0682 µM
4,"O[C@@H]1CC[C@@H](Oc2cc(Cl)c(Cl)c3[nH]cc(-c4cn[nH]c4)c23)C1 (racemic) [Example 99, trans-3-((6,7-Dichloro-3-(1H-pyrazol-4-yl)-1H-indol-4-yl)oxy)cyclopentan-1-ol (racemic mixture)]",0.0593 µM
5,"COCCOCCC(=O)N1CCn2c(c(-c3cn[nH]c3)c3ccc(Cl)c(Cl)c32)C1 [Example 317, 1-(6,7-Dichloro-10-(1H-pyrazol-4-yl)-3,4-dihydropyrazino[1,2-a]indol-2(1H)-yl)-3-(2-methoxyethoxy)propan-1-one]",0.0516 µM
